Test: solvent given as SMILES

`Cc1ccc(C2CC(c3ccc(O)cc3)=NN2c2ccc(S(N)(=O)=O)cc2)cc1` (configuration not stated) gave a fluorescence lifetime (in C1CCOC1) of 2.4 ns, a fluorescence lifetime (in C1COCCO1) of 2.41 ns and a fluorescence lifetime (in CC#N) of 2.32 ns. For the same molecule, the fluorescence lifetime (in CC(C)O) was 2.11 ns, the fluorescence lifetime (in CCO) was 2.04 ns and the fluorescence lifetime (in CCOC(C)=O) was 2.41 ns. For the same molecule, the fluorescence lifetime (in CN(C)C=O) was 2.59 ns, the fluorescence lifetime (in CO) was 1.66 ns and the fluorescence lifetime (in CS(C)=O) was 2.56 ns. For the same molecule, the fluorescence lifetime (in O) was 3.35 ns.

For `COc1ccccc1C1=C2C(C)=CC(C)=[N+]2[B-](F)(F)n2c(C)cc(C)c21`, the fluorescence lifetime (in C1CCOC1) was 6.42 ns and the fluorescence lifetime (in CCCCCC) was 5.78 ns.

With `O=C1NC(=O)c2ccc(N3CCOCC3)c3cccc1c23` the fluorescence lifetime (in C1CCOC1) was 8.38 ns, the fluorescence lifetime (in ClC(Cl)Cl) was 8.65 ns and the fluorescence lifetime (in ClCCl) was 8.38 ns.

Work on `COc1ccc2cc(-c3ccc([N+](=O)[O-])cc3)ccc2c1` yielded a fluorescence lifetime (in C1CCOC1) of 0.33 ns, a fluorescence lifetime (in CC#N) of 0.22 ns and a fluorescence lifetime (in ClC(Cl)Cl) of 1.87 ns. It also gave a fluorescence lifetime (in ClCCl) of 2.04 ns.

`Cc1ccc(-c2cc(-c3ccccc3)c3c(N)nc(N4CCCC4)c(C#N)c3n2)cc1` showed a fluorescence lifetime (in CC#N) of 10.3 ns, a fluorescence lifetime (in CC(C)=O) of 9.9 ns and a fluorescence lifetime (in CC(C)O) of 10.4 ns. The fluorescence lifetime (in CO) was 8.5 ns, the fluorescence lifetime (in ClC(Cl)Cl) was 13.1 ns and the fluorescence lifetime (in ClCCl) was 13.1 ns. The fluorescence lifetime (in c1ccccc1) was 12.6 ns.

`Nc1ccc(/C=C/c2ccc3ccccc3c2)cc1` gave a fluorescence lifetime (in CC#N) of 0.23 ns and a fluorescence lifetime (in CCCCCC) of 0.2 ns.

Work on `CCc1c(C)[nH]c(C2=[N+]3C(=Cc4c(C)cc(C)n4[B-]3(F)F)c3ccccc32)c1C` yielded a fluorescence lifetime (in C1CCOC1) of 4.41 ns, a fluorescence lifetime (in CC#N) of 5.55 ns and a fluorescence lifetime (in CCCCCC) of 7.03 ns. For the same molecule, the fluorescence lifetime (in CO) was 5.6 ns, the fluorescence lifetime (in Cc1ccccc1) was 5.9 ns and the fluorescence lifetime (in ClCCl) was 4.93 ns.

Molecule `Cc1c(C(=O)c2ccc3c4cccc5cccc(c6cccc2c63)c54)c2ccc3cccc4c5cccc6ccc1c(c65)c2c34` has a fluorescence lifetime (in ClCCl) of 1.1 ns.

For `COc1c2ccccc2c(OC)c2c1c1c(F)cccc1n2C`, the fluorescence lifetime (in C1CCCCC1) was 23.3 ns, the fluorescence lifetime (in CC#N) was 25.2 ns and the fluorescence lifetime (in CO) was 24.4 ns. It also gave a fluorescence lifetime (in ClCCl) of 21.2 ns.

In the case of `CN(C)c1ccc2c(-c3ccc(C(=O)[O-])cc3C(=O)[O-])c3ccc(=[N+](C)C)cc-3oc2c1`, the fluorescence lifetime (in CCO) is reported as 3.26 ns and the fluorescence lifetime (in O) is reported as 2.44 ns.

With `Cc1cc2cc3ccccc3cc2cn1` the fluorescence lifetime (in CCO) was 18.7 ns.

For `Nc1cccc2c1C(=O)c1ccccc1-2`, the fluorescence lifetime (in C1CCCCC1) was 0.8 ns, the fluorescence lifetime (in CC#N) was 2.3 ns and the fluorescence lifetime (in c1ccccc1) was 1.4 ns.

Molecule `CCCCCCOc1cc(/C=C/c2cc(OCCCCCC)c(/C=C/c3cc(OCCCCCC)c(C=C4C(=O)c5ccccc5C4=O)cc3OCCCCCC)cc2OCCCCCC)c(OCCCCCC)cc1C=C1C(=O)c2ccccc2C1=O` has a fluorescence lifetime (in ClCCl) of 1.22 ns.

For `c1ccc2c(c1)ccc1ccc3ccc4ccccc4c3c12`, the fluorescence lifetime (in ClC(Cl)Cl) was 26 ns.

`c1cc2cccc3c4cccc5cccc(c(c1)c23)c54` gave a fluorescence lifetime (in C1CCCCC1) of 4.7 ns.

For `C(#Cc1ccc(-n2c3ccccc3c3ccccc32)cc1)c1ccccc1`, the fluorescence lifetime (in CC#N) was 4.36 ns, the fluorescence lifetime (in CCCCC) was 2.6 ns and the fluorescence lifetime (in CO) was 3.7 ns. The fluorescence lifetime (in Cc1ccccc1) was 1.45 ns, the fluorescence lifetime (in ClC(Cl)Cl) was 1.59 ns and the fluorescence lifetime (in ClCCl) was 2.53 ns.

In the case of `c1ccc2c(c1)[nH]c1ccccc12`, the fluorescence lifetime (in CC#N) is reported as 15.1 ns, the fluorescence lifetime (in CCCCCC) is reported as 14.2 ns and the fluorescence lifetime (in CCO) is reported as 16.1 ns.

Molecule `COc1ccc2c(-c3nc(-c4ccccc4)no3)cc(=O)oc2c1` has a fluorescence lifetime (in CCO) of 6.4 ns and a fluorescence lifetime (in ClC(Cl)Cl) of 4.8 ns.

Molecule `COc1ccc(-c2c3cc4ccccc4cc3c(C#Cc3ccccc3)c3cc4ccccc4cc23)cc1` has a fluorescence lifetime (in ClCCl) of 2.2 ns.

Molecule `O=C1OC(=O)c2ccc(N(c3ccccc3)c3c4ccccc4cc4ccccc34)c3cccc1c23` has a fluorescence lifetime (in C1CCOC1) of 0.64 ns, a fluorescence lifetime (in CCCCCC) of 5.4 ns and a fluorescence lifetime (in c1ccccc1) of 2.14 ns.

With `CC(C)(C)C1Nc2ccccc2C(=O)N1Cc1ccccc1` (configuration not stated) the fluorescence lifetime (in CC#N) was 2.43 ns, the fluorescence lifetime (in CCCCCCCCCCCCCCCC) was 4.97 ns and the fluorescence lifetime (in CO) was 5.24 ns. For the same molecule, the fluorescence lifetime (in ClC(Cl)Cl) was 5.86 ns and the fluorescence lifetime (in c1ccccc1) was 5.11 ns.

Molecule `Cc1ccc2c(c1)C(=O)c1ccncc1-2` has a fluorescence lifetime (in CC#N) of 5.3 ns, a fluorescence lifetime (in CCOC(C)=O) of 7.4 ns and a fluorescence lifetime (in Cc1ccccc1) of 6.6 ns. It also gave a fluorescence lifetime (in ClCCl) of 5.9 ns.
